Assay results as given in US10583129B2, “Use of EP4 receptor antagonists for the treatment of NASH-associated liver cancer” (AskAt Inc., priority 2016, dated 2020).

Columns and labels:
[1] = test system: obesity-induced NASH-associated mouse liver cancer model; assay: DMBA plus high fat diet-induced NASH-associated mouse liver cancer model: tumor development and body weight; format: in vivo
Procedure: FIG. 1 depicts a mouse model timeline developed by treating with 7,12-dimethylbenz(a)anthracene (“DMBA”), and by feeding with a high fat diet (HFD). Compound A was administered to the mice every day from 19 weeks of age to 30 weeks of age and then euthanized (“Eut”).
FIG. 2 is macroscopic photographs of the liver isolated from the vehicle-treated mice (left side) and Compound A-treated mice (right side). […] Compound A or a vehicle (n=5, each) were treated to the mice every day from 19 weeks of age to 30 weeks of age. Arrowheads identify hepatocellular carcinomas (HCCs).
FIG. 3 depicts the average liver tumor numbers and the relative size distribution (classified as >6 mm, 2-6 mm, 2 mm). “NS” means not significant.
FIG. 4 depicts the average body weight of the vehicle-treated group and Compound A-treated group at the age of 30 weeks. Data are represented as means±SD.
C57/BL6 mice were purchased from CLEA Japan Inc. The TIr2^−/− mice (C57/BL6) were purchased from Oriental Yeast Co. Ltd.
Hematoxylin and eosin staining and immunofluorescence analysis were performed as previously described (Yoshimoto et al., Nature, 2013, 499:97-101).
P values less than 0.05 were considered significant. “NS” indicates not significant.
This mouse model was developed by treating with DMBA, 7,12-dimethylbenz(a)anthracene, and by feeding a high fat diet (HFD) (Ootani 2013). […] In this experiment, Compound A 30 mg/kg QD was administered to the mice every day from 19 weeks of age to 30 weeks of age (FIG. 1). As a control, a separate group of mice were treated only with a vehicle and no active ingredient.

[2] = test system: immune cells obtained from mouse livers; details: liver, 30 mg/kg QD, vs vehicle
Procedure: FIG. 5A depicts flow cytometry analysis of immune cells between vehicle-treated mice or Compound A-treated mice. The percentages of total CD11c^hi MHC class II (MHC II)^hi, CD11b^+ CD11c^hi MHC II^hi, or CD103^+ CD11c^hiMHC II^hi cells were analyzed by flow cytometry. Data are represented as means±SEM.
FIG. 6A depicts the percentages of CD3^+ CD4^+ Foxp3^+, CD3^+ CD4^+ Foxp3^−, CD3^+ CD8^+ cells analyzed by flow cytometry. The ratio of CD8^+ T cells to CD4^+ Foxp3^+ Tregs was calculated. Data are represented as means±SEM. NS=not significant, *p<0.05, **p<0.01.
In FIG. 7A, the percentages of CD69^+ CD8^+ cells were analyzed by flow cytometry (*p<0.05, **p<0.01).
In FIG. 8A, the percentages of PD-1^+ CD8^+ cells were analyzed by flow cytometry (*p<0.05, **p<0.01).
Immune cells were obtained from mouse livers and were subjected to measuring cytokine production and flow cytometric analysis.
Data were analyzed by unpaired t-test with Welch correction (two-side) or Man-Whitney test (two-side). P values less than 0.05 were considered significant. “NS” indicates not significant.
The impact of EP4 blockage on the prevalence and activation status of immune cells was assessed.

Compound: C[C@H](NC(=O)c1cc(Cl)cnc1Oc1cccc(F)c1)c1ccc(C(=O)O)cc1 [Compound A, 4-[(1S)-1-({[5-chloro-2-(3-fluorophenoxy)pyridin-3-yl]carbonyl}amino)ethyl]-benzoic acid]
- body weight ([1]; 30 mg/kg QD, at the age of 30 weeks, FIG. 4): did not influence body weight
- Hepatocellular carcinoma (HCC) development ([1]; Compound A 30 mg/kg QD from 19 to 30 weeks of age, compared to vehicle-treated mice): strongly reduced
- Tumor colony sized more than 6 mm ([1]; after daily therapy from 19 to 30 weeks of age, FIG. 3): completely disappeared
- tumor number in the liver ([1]; treated daily from 19 to 30 weeks of age, compared to vehicle-treated mice, FIG. 3): significantly inhibited
- frequency of CD11b+ DCs ([2]; FIG. 5A/5B): not changed
- frequency of CD11chi MHC class IIhi dendritic cells (DCs) ([2]; FIG. 5A/5B): not changed
- population of CD103+ DCs ([2]; FIG. 5A/5B): increased
- frequency of CD8+ T cells ([2]; FIG. 6A): not changed
- ratio of CD8+ T cells to Tregs ([2]; FIG. 6A): increased
- frequency of CD4+Foxp3+ regulatory T cells (Tregs) ([2]; FIG. 6A/6B): significantly reduced
- frequency of CD4+Foxp3- T cells ([2]; FIG. 6A/6B): but not CD4^+Foxp3^− T cells, was significantly reduced
- number of CD8+ T cells expressing the activation marker CD69 ([2]; FIG. 7A/7B): significantly increased
- number of CD8+ T cells expressing programmed cell death-1 (PD-1) ([2]; FIG. 8A/8B): significantly reduced
